Assay results: paper PMC12888856 (Antimicrobial Agents and Chemotherapy, 2025)
Values joined by “and” are separate entries in the source; they are usually repeats but may differ in a detail not shown here. Equal entries are not always repeated. Where two headings read alike, the source gives them in different places.

How the values were obtained:
[1] = test system: A/Puerto Rico/8/1934 (H1N1); assay: microbe, parasite or virus in culture; assay type: cell-based, Influenza A virus
[2] = test system: A/Puerto Rico/8/1934 (H1N1); design: species or system BALB/c mice; details: mouse, in vivo
[3] = test system: A/Hong Kong/8/1968 (H3N2); assay: microbe, parasite or virus in culture; assay type: cell-based, Influenza A virus
[4] = test system: IAV H1N1 and H3N2 isolates; assay: microbe, parasite or virus in culture; assay type: cell-based, Influenza A virus
[5] = test system: A/Puerto Rico/8/1934 (H1N1); design: species or system BALB/c mice; details: mouse, in vivo; remark: listed apart in the source
A/Malaya/302/1954 (H1N1) = assay: microbe, parasite or virus in culture; assay type: cell-based, Influenza A virus
A/Weiss/1943 (H1N1) = assay: microbe, parasite or virus in culture; assay type: cell-based, Influenza A virus
B/Lee/1940 = assay: microbe, parasite or virus in culture; assay type: cell-based; details: Influenza B virus, MDCK
[6] = test system: A/Hong Kong/213/2003 (H5N1); assay: microbe, parasite or virus in culture; assay type: cell-based; details: Influenza A virus, H5N1, MDCK
[7] = test system: HPAI H5N1 and H7N9 isolates; assay: microbe, parasite or virus in culture; assay type: cell-based; details: Influenza A virus, MDCK, read-out: EC50 values, range over isolates
[8] = test system: A/California/07/2009 (H1N1); assay: microbe, parasite or virus in culture; assay type: cell-based; details: Influenza A virus, H1N1, MDCK
B/Florida/78/2015 = assay: microbe, parasite or virus in culture; assay type: cell-based; details: Influenza B virus, MDCK
[9] = test system: A/Michigan/45/2015 (H1N1); assay: microbe, parasite or virus in culture; assay type: cell-based; details: Influenza A virus, H1N1, MDCK
in vitro [10] = details: human
in vitro [11] = details: dog
A549 cells = details: human
A/WSN/1933 (H1N1) = assay: microbe, parasite or virus in culture; assay type: cell-based; details: Influenza A virus, MDCK
[12] = test system: A/Hong Kong/4801/2014 (H3N2); assay: microbe, parasite or virus in culture; assay type: cell-based; details: Influenza A virus, H3N2, MDCK
[13] = test system: A/Vietnam/1203/2004 (H5N1); assay: microbe, parasite or virus in culture; assay type: cell-based; details: Influenza A virus, H5N1, MDCK
HepG2 cells = details: human
[14] = test system: A/Mexico/4108/2009 (H1N1); assay: microbe, parasite or virus in culture; assay type: cell-based; details: Influenza A virus, H1N1, MDCK
[15] = test system: A/Puerto Rico/8/1934 (H1N1); details: mouse, in vivo; cited from earlier work
[16] = test system: A/New York/18/2009 (H1N1); assay: microbe, parasite or virus in culture; assay type: cell-based; details: Influenza A virus, H1N1, MDCK
A/Anhui/1/2013 (H7N9) = assay: microbe, parasite or virus in culture; assay type: cell-based; details: Influenza A virus, H7N9, MDCK
[17] = test system: A/Switzerland/971593/2013 (H3N2); assay: microbe, parasite or virus in culture; assay type: cell-based; details: Influenza A virus, H3N2, MDCK
[18] = cited from earlier work
[19] = test system: A/California/2/2014 (H3N2); assay: microbe, parasite or virus in culture; assay type: cell-based; details: Influenza A virus, H3N2, MDCK
A/Taiwan/1/2017 (H7N9) = assay: microbe, parasite or virus in culture; assay type: cell-based; details: Influenza A virus, H7N9, MDCK
[20] = test system: A/cattle/Texas/56283/2024 (H5N1); assay: microbe, parasite or virus in culture; assay type: cell-based; details: Influenza A virus, H5N1, MDCK
[21] = mouse, in vivo; cited from earlier work
A/Perth/16/2009 (H3N2) = assay: microbe, parasite or virus in culture; assay type: cell-based; details: Influenza A virus, H3N2, MDCK
[22] = Balb/c, mouse, in vivo
A/Kansas/14/2017 (H3N2) = assay: microbe, parasite or virus in culture; assay type: cell-based; details: Influenza A virus, H3N2, MDCK
[23] = test system: A/Brisbane/05/2018 (H1N1); assay: microbe, parasite or virus in culture; assay type: cell-based; details: Influenza A virus, H1N1, MDCK
[24] = test system: A/Wilson-Smith/1933 (H1N1); assay: microbe, parasite or virus in culture; assay type: cell-based; details: Influenza A virus, H1N1, MDCK

## CCOC(=O)C1=C[C@@H](OC(CC)CC)[C@H](NC(C)=O)[C@@H](N)C1 [Oseltamivir, oseltamivir, reference compound]
[1]; Influenza A virus, H1N1, MDCK
  EC50: 970 nM
[2]
  body weight loss leading to euthanasia: > 25%
[3]
  Fold shift: 0.09
[3]; read-out: EC50
  EC50: 90 nM
[4]
  shift in EC50 values relative to reference strain: < 2 fold
[5]
  Lung viral load: comparable to the vehicle control
A/Malaya/302/1954 (H1N1)
  Fold shift: 1.19
A/Weiss/1943 (H1N1); Influenza A virus, H1N1, MDCK
  EC50: 1050 nM

## O=C1c2c(O)c(=O)ccn2N([C@@H]2c3ccccc3SCc3c2ccc(F)c3F)[C@@H]2COCCN12 [Baloxavir, baloxavir, reference compound]
[1]; Influenza A virus, H1N1, MDCK
  EC50: 0.57 nM
[3]; read-out: EC50
  EC50: 0.68 nM
A/Weiss/1943 (H1N1); Influenza A virus, H1N1, MDCK
  EC50: 0.4 nM

## COC[C@@]1(C)COC[C@@H](COc2ccc(-c3cc(C(N)=O)c(O)nc3C(F)(F)F)cc2)O1 [VNT-101]
B/Lee/1940
  EC50: > 47500 nM
  EC90: > 50000 nM
[6]
  EC50: 19 nM
[7]
  EC50: 19 to 69 nM
[8]
  EC50: 8.39 nM
  EC90: 19.2 nM
[1]
  EC50: 2.1 nM and 2 nM
[1]; Influenza A virus, H1N1, MDCK
  EC50: 2.08 nM
  EC90: 3.22 nM
[1]; Influenza A virus, H1N1, MDCK, read-out: mean EC50
  EC50: 5 nM
B/Florida/78/2015
  EC50: 43700 nM
  EC90: > 50000 nM
[9]
  EC50: 17.7 nM
  EC90: 29.4 nM
In vitro [10]; Proliferating condition CC50
  CC50: 72800 nM
In vitro [10]; Stationary condition CC50 (mean)
  CC50: > 80400 nM
In vitro [10]; Stationary condition CC50, individual runs
  CC50: > 100000 nM
In vitro [11]
  CC50: > 100000 nM
A549 cells
  CC50: > 100000 nM
A/WSN/1933 (H1N1)
  EC50: 115 nM
  EC90: 191 nM
[2]
  final mean body weight loss: 21.1%
  maximum mean body weight loss: 24.4%
[2]; 30 mg/kg
  maximum mean body weight loss: 13.6% and 25.1%
[2]; po, 100 mg/kg
  Survival: 33%
[12]
  EC50: 2.59 nM
  EC90: 3.71 nM
[3]; Influenza A virus, H3N2, MDCK
  EC50: > 50000 nM
  EC90: > 50000 nM
[3]; read-out: EC50
  EC50: > 50000 nM
[13]
  EC50: 25 nM
HepG2 cells
  CC50: > 100000 nM
[14]
  EC50: 14.4 nM
  EC90: 112 nM
[15]
  protection from lethality, prophylaxis: protected mice from lethality
[16]
  EC50: 1.85 nM
  EC90: 5.12 nM
[4]; Influenza A virus, MDCK, read-out: mean EC50 values, range over isolates
  EC50: 2 to 18 nM
A/Anhui/1/2013 (H7N9)
  EC50: 24 nM
[17]
  EC50: 2.19 nM
  EC90: 3.32 nM
[18]
  percent plasma protein binding: 97.1%
[19]
  EC50: 2.2 nM
  EC90: 3.41 nM
A/Taiwan/1/2017 (H7N9)
  EC50: 69 nM
[20]
  EC50: 65 nM
[21]
  Cmin: 3.49 ± 1.35 µM
A/Perth/16/2009 (H3N2)
  EC50: 4.05 nM
  EC90: 5.68 nM
[22]
  fAUC: 3.045 µM·h
  fCmin: 0.10 µM
A/Kansas/14/2017 (H3N2)
  EC50: 3.14 nM
  EC90: 18 nM
A/Malaya/302/1954 (H1N1); Influenza A virus, H1N1, MDCK
  EC50: > 50000 nM
  EC90: > 50000 nM
A/Weiss/1943 (H1N1)
  EC50: 123 nM
A/Weiss/1943 (H1N1); Influenza A virus, H1N1, MDCK
  EC50: 123 nM
  EC90: 210 nM
[23]
  EC50: 6.55 nM
  EC90: 11.2 nM
[24]
  EC50: 26.3 nM
  EC90: 50.6 nM
